Consider 15 compounds from patent US20110182850A1, “ORGANIC COMPOUNDS AND THEIR USES” (priority 2009, published 2011).

The structures appear in SMILES notation. pIC50: −log10 of the molar value.

T1 sequence (P26664 1658-1711): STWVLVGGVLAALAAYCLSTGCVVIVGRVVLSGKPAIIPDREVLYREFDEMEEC
T1 sequence (P26664 1027-1657): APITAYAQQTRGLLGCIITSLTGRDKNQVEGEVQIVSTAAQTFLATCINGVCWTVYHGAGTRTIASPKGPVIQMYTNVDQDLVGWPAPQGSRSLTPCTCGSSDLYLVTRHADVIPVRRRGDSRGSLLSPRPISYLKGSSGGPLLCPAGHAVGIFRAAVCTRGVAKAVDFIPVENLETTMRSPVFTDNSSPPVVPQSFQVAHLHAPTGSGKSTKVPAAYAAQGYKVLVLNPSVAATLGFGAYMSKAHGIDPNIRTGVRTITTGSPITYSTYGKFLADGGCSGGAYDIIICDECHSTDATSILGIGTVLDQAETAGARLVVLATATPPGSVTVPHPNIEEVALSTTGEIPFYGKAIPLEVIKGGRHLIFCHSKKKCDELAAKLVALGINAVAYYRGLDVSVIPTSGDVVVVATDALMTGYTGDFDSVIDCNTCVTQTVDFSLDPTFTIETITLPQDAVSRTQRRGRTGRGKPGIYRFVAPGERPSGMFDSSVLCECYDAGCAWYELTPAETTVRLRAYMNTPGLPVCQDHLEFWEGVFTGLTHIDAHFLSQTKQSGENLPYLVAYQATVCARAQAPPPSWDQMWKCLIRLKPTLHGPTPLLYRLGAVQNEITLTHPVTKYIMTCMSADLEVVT

The first experiment concerns the target T1, HCV NS3-4A serine protease (full-length NS3-4A protein, genotype 1a, strain HCV-1) (Hepatitis C virus genotype 1a, UniProt P26664).
T1 construct: using the full-length NS3-4A protein (genotype 1a, strain HCV-1)
As to the kind of experiment: HCV NS3-4A protease assay. The experiment is classed as biochemical. The conditions noted are these: Protease IC50. The method, then: The inhibitory activity of certain compounds of Table A against HCV NS3-4A serine protease is determined in a homogenous assay using the full-length NS3-4A protein (genotype 1a, strain HCV-1) and a commercially available internally-quenched fluorogenic peptide substrate as described by Taliani, M., et al. 1996 Anal. Biochem. 240:60-67, which is incorporated by reference in its entirety.
In turn, `C=C[C@@H]1C[C@]1(NC(=O)[C@@H]1C[C@@]2(CN1C(=O)[C@@H](NC(=O)[C@@H](NC(=O)[C@@H]1CCC(=O)N1)C1CCCCC1)C(C)(C)C)C(C)(C)C21CCC1)C(=O)NS(=O)(=O)C1CC1` [Compound 110, (5R,8S)-7-[(2S)-2-{[(2S)-2-cyclohexyl-2-({[(2S)-5-oxopyrrolidin-2-yl]carbonyl}amino)acetyl]amino}-3,3-dimethylbutanoyl]-N-{(1R,2S)-1-[(cyclopropylsulfonyl)carba-moyl]-2-vinylcyclopropyl}-10,10-dimethyl-7-azadispiro[3.0.4.1]decane-8-carboxamide] gave a pIC50 of 8.82.
`C=C[C@@H]1C[C@]1(NC(=O)[C@@H]1C[C@@]2(CN1C(=O)[C@@H](NC(=O)[C@@H](NC(=O)c1cnco1)C1CCCCC1)C(C)(C)C)C(C)(C)C21CCC1)C(=O)NS(=O)(=O)C1CC1` [Compound 113, (5R,8S)-7-[(2S)-2-({(2S)-2-cyclohexyl-2-[(1,3-oxazol-5-ylcarbonyl)amino]acetyl}amino)-3,3-dimethylbutanoyl]-N-{(1R,2S)-1-[(cyclopropylsulfonyl)carba-moyl]-2-vinylcyclopropyl}-10,10-dimethyl-7-azadispiro[3.0.4.1]decane-8-carboxamide] gave a pIC50 of 8.60.
Same read-out and setting: next, `C=C[C@@H]1C[C@]1(NC(=O)[C@@H]1C[C@@]2(CN1C(=O)[C@@H](NC(=O)[C@@H](NC(=O)[C@@H]1CCCCN1CCF)C1CCCCC1)C(C)(C)C)C(C)(C)C21CCC1)C(=O)NS(=O)(=O)C1CC1` [Compound 29, (5R,8S)-7-[(2S)-2-{[(2S)-2-cyclohexyl-2-({[(2S)-1-(2-fluoroethyl)piperidin-2-yl]carbonyl}amino)acetyl]amino}-3,3-dimethylbutanoyl]-N-{(1R,2S)-1-[(cyclopropylsulfonyl)carba-moyl]-2-vinylcyclopropyl}-10,10-dimethyl-7-azadispiro[3.0.4.1]decane-8-carboxamide]: 9.00; `CC(C)N1CCCCC1C(=O)N[C@H](C(=O)N[C@H](C(=O)N1C[C@]2(C[C@H]1C(=O)N[C@]1(C(=O)NS(=O)(=O)C3CC3)CC=CCC1)C(C)(C)C21CCC1)C(C)(C)C)C(C)(C)C` (stereo partly drawn) [Compound 26, (5R,8S)-N-{(1S)-1-[(cyclopropylsulfonyl)carba-moyl]cyclohex-3-en-1-yl}-7-[(2S)-2-{[(2S)-2-{[(1-isopropylpiperidin-2-yl)carbonyl]amino}-3,3-dimethylbutanoyl]amino}-3,3-dimethylbutanoyl]-10,10-dimethyl-7-azadispiro[3.0.4.1]decane-8-carboxamide]: 5.53; `C=C[C@@H]1C[C@]1(NC(=O)[C@@H]1C[C@@]2(CN1C(=O)[C@@H](NC(=O)[C@@H](NC(=O)c1ncn[nH]1)C(C)(C)C)C(C)(C)C)C(C)(C)C21CCC1)C(=O)NS(=O)(=O)C1CC1` [Compound 41, (5R,8S)-N-{(1R,2S)-1-[(cyclopropylsulfonyl)carba-moyl]-2-vinylcyclopropyl}-7-[(2S)-2-({(2S)-3,3-dimethyl-2-[(1H-1,2,4-triazol-5-ylcarbonyl)amino]butanoyl}amino)-3,3-dimethylbutanoyl]-10,10-dimethyl-7-azadispiro[3.0.4.1]decane-8-carboxamide]: 7.60.
Same read-out and setting: the same measure for `C=C[C@@H]1C[C@]1(NC(=O)[C@@H]1C[C@@]2(CN1C(=O)[C@@H](NC(=O)[C@@H](NC(=O)[C@H]1CCCCN1C(C)C)C(C)(C)C)C(C)(C)C)C(C)(C)C21CCC1)C(=O)NS(=O)(=O)C1CC1` [Compound 142, (5R,8S)-N-{(1R,2S)-1-[(cyclopropylsulfonyl)carba-moyl]-2-vinylcyclopropyl}-7-[(2S)-2-{[(2S)-2-({[(2R)-1-isopropylpiperidin-2-yl]carbonyl}amino)-3,3-dimethylbutanoyl]amino}-3,3-dimethylbutanoyl]-10,10-dimethyl-7-azadispiro[3.0.4.1]decane-8-carboxamide]: 8.52.
The same measure, in the same setting: next, `C=C[C@@H]1C[C@]1(NC(=O)[C@@H]1C[C@@]2(CN1C(=O)[C@@H](NC(=O)[C@@H](NC(=O)[C@@H]1CCCCN1C(C)C)C(C)(C)C)C(C)(C)C)C(C)(C)C21CCC1)C(=O)NS(=O)(=O)c1cccc2cc[nH]c12` [Compound 4, (5R,8S)-N-{(1R,2S)-1-[(1H-indol-7-ylsulfonyl)carbamoyl]-2-vinylcyclopropyl}-7-[(2S)-2-{[(2S)-2-({[(2S)-1-isopropylpiperidin-2-yl]carbonyl}amino)-3,3-dimethylbutanoyl]amino}-3,3-dimethylbutanoyl]-10,10-dimethyl-7-azadispiro[3.0.4.1]decane-8-carboxamide]: 9.10; `C=C[C@@H]1C[C@]1(NC(=O)[C@@H]1C[C@@]2(CN1C(=O)[C@@H](NC(=O)[C@@H](NC(=O)c1c[nH]c(=O)[nH]1)C(C)(C)C)C(C)(C)C)C(C)(C)C21CCC1)C(=O)NS(=O)(=O)C1CC1` [Compound 44, (5R,8S)-N-{(1R,2S)-1-[(cyclopropylsulfonyl)carba-moyl]-2-vinylcyclopropyl}-7-[(2S)-2-{[(2S)-3,3-dimethyl-2-{[(2-oxo-2,3-dihydro-1H-imidazol-4-yl)carbonyl]amino}butanoyl]amino}-3,3-dimethylbutanoyl]-10,10-dimethyl-7-azadispiro[3.0.4.1]decane-8-carboxamide]: 8.70; `C=C[C@@H]1C[C@]1(NC(=O)[C@@H]1C[C@@]2(CN1C(=O)[C@@H](NC(=O)[C@@H](NC(=O)c1cnccn1)C1CCCCC1)C(C)(C)C)C(C)(C)C21CCC1)C(=O)NS(=O)(=O)C1CC1` [Compound 88, (5R,8S)-7-[(2S)-2-({(2S)-2-cyclohexyl-2-[(pyrazin-2-ylcarbonyl)amino]acetyl}amino)-3,3-dimethylbutanoyl]-N-{(1R,2S)-1-[(cyclopropylsulfonyl)carba-moyl]-2-vinylcyclopropyl}-10,10-dimethyl-7-azadispiro[3.0.4.1]decane-8-carboxamide]: 9.10.
With `C=C[C@@H]1C[C@]1(NC(=O)[C@@H]1C[C@@]2(CN1C(=O)C(NC(=O)[C@@H](NC(=O)c1cnccn1)C1CCCCC1)C(C)(C)C)C(C)(C)C21CCC1)C(=O)NS(=O)(=O)C1CC1` (stereo partly drawn) [Compound 87, (5R,8S)-7-[2-({(2S)-2-cyclohexyl-2-[(pyrazin-2-ylcarbonyl)amino]acetyl}amino)-3,3-dimethylbutanoyl]-N-{(1R,2S)-1-[(cyclopropylsulfonyl)carba-moyl]-2-vinylcyclopropyl}-10,10-dimethyl-7-azadispiro[3.0.4.1]decane-8-carboxamide], the pIC50 is 8.60.
`C=C[C@H]1C[C@@]1(NC(=O)C1C[C@@]2(CN1C(=O)[C@@H](NC(=O)[C@@H](NC(=O)C1CCN1C(C)(C)C)C(C)(C)C)C(C)(C)C)C(C)(C)C21CCC1)C(=O)NS(=O)(=O)C1CC1` (stereo partly drawn) [Compound 123, (5R)-7-[(2S)-2-{[(2S)-2-{[(1-tert-butylazetidin-2-yl)carbonyl]amino}-3,3-dimethylbutanoyl]amino}-3,3-dimethylbutanoyl]-N-{(1S,2R)-1-[(cyclopropylsulfonyl)carba-moyl]-2-vinylcyclopropyl}-10,10-dimethyl-7-azadispiro[3.0.4.1]decane-8-carboxamide]: the pIC50 was 8.22.

Still in this experiment, the particulars now being: read-out: Protease IC50.
With `C=C[C@@H]1C[C@]1(NC(=O)[C@@H]1C[C@@]2(CN1C(=O)[C@@H](NC(=O)c1coc(CN(C)C)n1)C(C)(C)C)C(C)(C)C21CCC1)C(=O)NS(=O)(=O)C1CC1` [Compound 59, (5R,8S)-N-{(1R,2S)-1-[(cyclopropylsulfonyl)carba-moyl]-2-vinylcyclopropyl}-7-{(2S)-2-[({2-[(dimethylamino)methyl]-1,3-oxazol-4-yl}carbonyl)amino]-3,3-dimethylbutanoyl}-10,10-dimethyl-7-azadispiro[3.0.4.1]decane-8-carboxamide], the pIC50 was 6.40.
On the same count and under the same terms, the same measure for `C=C[C@@H]1C[C@]1(NC(=O)[C@@H]1C[C@@]2(CN1C(=O)[C@@H](NC(=O)[C@@H](CC(=O)N(C)C)C(C)(C)C)C(C)(C)C)C(C)(C)C21CCC1)C(=O)NS(=O)(=O)C1CC1` [Compound 65, (2S)-2-tert-butyl-N1-[(1S)-1-{[(5R,8S)-8-({(1R,2S)-1-[(cyclopropylsulfonyl)carba-moyl]-2-vinylcyclopropyl}carbamoyl)-10,10-dimethyl-7-azadispiro[3.0.4.1]dec-7-yl]carbonyl}-2,2-dimethylpropyl]-N4,N4-dimethylsuccinamide]: 7.15; for `C=C[C@@H]1C[C@]1(NC(=O)[C@@H]1C[C@@]2(CN1C(=O)[C@@H](NCc1nc3ccccc3n1C)C(C)(C)C)C(C)(C)C21CCC1)C(=O)NS(=O)(=O)C1CC1` [Compound 12, (5R,8S)-N-{(1R,2S)-1-[(cyclopropylsulfonyl)carba-moyl]-2-vinylcyclopropyl}-7-[(2S)-3,3-dimethyl-2-{[(1-methyl-1H-benzimidazol-2-yl)methyl]amino}butanoyl]-10,10-dimethyl-7-azadispiro[3.0.4.1]decane-8-carboxamide]: 6.40.
On to `C=C[C@@H]1C[C@]1(NC(=O)[C@@H]1C[C@@]2(CN1C(=O)[C@@H](NC(=O)N[C@H](CC(=O)N1CCOCC1)C(C)(C)C)C(C)(C)C)C(C)(C)C21CCC1)C(=O)NS(=O)(=O)C1CC1` [Compound 34, (5R,8S)-N-{(1R,2S)-1-[(cyclopropylsulfonyl)carba-moyl]-2-vinylcyclopropyl}-7-[(2S)-2-({[(1R)-2,2-dimethyl-1-(2-morpholin-4-yl-2-oxoethyl)propyl]carbamoyl}amino)-3,3-dimethylbutanoyl]-10,10-dimethyl-7-azadispiro[3.0.4.1]decane-8-carboxamide], for which the pIC50 was 5.67.
